Counter-ions that a name gives are not always drawn.
target: T1, recombinant guanylate cyclase reporter cell line (sGC, CHO reporter cell) (Rattus norvegicus, UniProt P20595); assay: Effect on a recombinant guanylate cyclase reporter cell line (CHO reporter cell); format: cell-based
T1 construct: expressed in transfected cells; host or cells: CHO reporter cell line
T1 sequence (P20595 1-619): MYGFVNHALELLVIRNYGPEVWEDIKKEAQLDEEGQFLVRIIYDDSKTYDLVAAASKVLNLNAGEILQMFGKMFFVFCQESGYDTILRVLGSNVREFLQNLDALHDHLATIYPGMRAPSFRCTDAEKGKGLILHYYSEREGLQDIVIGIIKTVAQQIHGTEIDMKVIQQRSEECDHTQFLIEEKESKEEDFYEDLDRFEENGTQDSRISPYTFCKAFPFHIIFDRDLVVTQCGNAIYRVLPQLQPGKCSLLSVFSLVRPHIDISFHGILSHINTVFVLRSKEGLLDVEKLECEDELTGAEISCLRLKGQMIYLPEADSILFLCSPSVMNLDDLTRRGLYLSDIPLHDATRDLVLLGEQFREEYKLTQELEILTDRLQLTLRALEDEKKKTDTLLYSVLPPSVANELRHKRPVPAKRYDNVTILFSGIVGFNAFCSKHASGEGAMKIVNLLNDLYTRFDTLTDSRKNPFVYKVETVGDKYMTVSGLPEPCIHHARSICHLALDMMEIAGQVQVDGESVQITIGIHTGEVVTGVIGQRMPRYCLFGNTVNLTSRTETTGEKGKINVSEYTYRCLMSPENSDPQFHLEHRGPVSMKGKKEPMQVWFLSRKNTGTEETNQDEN
T1 sequence (P19686 1-690 partner): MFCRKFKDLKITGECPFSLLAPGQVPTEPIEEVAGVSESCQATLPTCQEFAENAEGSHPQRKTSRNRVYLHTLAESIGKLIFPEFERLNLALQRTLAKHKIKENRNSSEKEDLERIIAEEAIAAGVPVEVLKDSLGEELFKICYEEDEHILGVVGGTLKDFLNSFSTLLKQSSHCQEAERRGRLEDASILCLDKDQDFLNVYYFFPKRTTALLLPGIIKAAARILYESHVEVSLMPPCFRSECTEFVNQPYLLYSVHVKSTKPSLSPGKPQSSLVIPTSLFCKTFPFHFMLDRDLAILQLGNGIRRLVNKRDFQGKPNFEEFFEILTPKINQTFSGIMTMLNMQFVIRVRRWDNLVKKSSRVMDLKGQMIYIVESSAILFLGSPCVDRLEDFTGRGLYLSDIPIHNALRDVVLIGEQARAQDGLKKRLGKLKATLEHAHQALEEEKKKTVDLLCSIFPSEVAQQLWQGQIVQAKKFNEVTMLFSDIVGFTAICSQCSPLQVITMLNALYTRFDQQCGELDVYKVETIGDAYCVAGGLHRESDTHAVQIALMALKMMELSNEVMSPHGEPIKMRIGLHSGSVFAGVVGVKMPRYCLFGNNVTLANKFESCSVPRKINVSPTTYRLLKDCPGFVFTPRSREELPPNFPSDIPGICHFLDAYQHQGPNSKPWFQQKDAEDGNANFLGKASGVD
Protocol: B-2. Effect on a Recombinant Guanylate Cyclase Reporter Cell Line The cellular activity of the compounds according to the invention is determined using a recombinant guanylate cyclase reporter cell line, as described in F. Wunder et al., Anal. Biochem. 339, 104-112 (2005).

Structure (SMILES) | MEC (minimum effective concentration), sGC-activating activity in the CHO reporter cell in vitro
CC1CCN(C(C(=O)Nc2cc(CCC(=O)O)ccc2Cl)C(C)C(F)(F)F)CC1 (racemic) [Example 1, 3-(4-Chloro-3-{[4,4,4-trifluoro-3-methyl-2-(4-methylpiperidin-1-yl)butanoyl]amino}phenyl)propanoic acid] | 20 nM
COC1CCN(C(C(=O)Nc2cc(CC3(C(=O)O)CC3)ccc2F)C2CCCC2)CC1 (racemic) [Example 52, rac-1-(3-{[Cyclopentyl(4-methoxypiperidin-1-yl)acetyl]amino}-4-fluorobenzyl)cyclopropanecarboxylic acid trifluoroacetate] | 3000 nM
CC(C(C(=O)Nc1cc(CC2(C(=O)O)CC2)ccc1F)N1CCCCC1)C(F)(F)F (single isomer, unassigned) [Example 2, 1-(4-fluoro-3-{[4,4,4-trifluoro-3-methyl-2-(piperidin-1-yl)butanoyl]amino}benzyl)cyclopropanecarboxylic acid] | 20 nM
CC1CCN(C(C(=O)Nc2cc(CC3(C(=O)O)CC3)ccc2F)C(C)C(F)(F)F)CC1 (single isomer, unassigned) [Example 4, 1-(4-fluoro-3-{[4,4,4-trifluoro-3-methyl-2-(4-methylpiperidin-1-yl)butanoyl]amino}benzyl)cyclopropanecarboxylic acid] | 5 nM
CC1CCN(C(C(=O)Nc2cc(CCC(=O)O)ccc2F)C(C)C(F)(F)F)CC1 (single isomer, unassigned) [Example 6, 3-(4-fluoro-3-{[4,4,4-trifluoro-3-methyl-2-(4-methylpiperidin-1-yl)butanoyl]amino}phenyl)propanoic acid] | 60 nM
CCC1CCN(C(C(=O)Nc2cc(CCC(=O)O)ccc2F)C(C)C(F)(F)F)CC1 (single isomer, unassigned) [Example 9, 3-(3-{[2-(4-ethylpiperidin-1-yl)-4,4,4-trifluoro-3-methylbutanoyl]amino}-4-fluorophenyl)propanoic acid] | 10 nM
CC1CCN(C(C(=O)Nc2cc(CCC(=O)O)ccc2Cl)C(C)C(F)(F)F)CC1 (single isomer, unassigned) [Example 13, 3-(4-chloro-3-{[4,4,4-trifluoro-3-methyl-2-(4-methylpiperidin-1-yl)butanoyl]amino}phenyl)propanoic acid] | 30 nM
CCC1CCN([C@H](C(=O)Nc2cc(CC3(C(=O)O)CC3)ccc2F)[C@H](C)C(F)(F)F)CC1 (single isomer, unassigned) [Example 38] | 300 nM
CCC1CCN([C@H](C(=O)Nc2cc(CCC(=O)O)ccc2F)[C@H](C)C(F)(F)F)CC1 (single isomer, unassigned) [Example 40] | 1000 nM
CCC1CCN([C@@H](C(=O)Nc2cc(CCC(=O)O)ccc2F)[C@@H](C)C(F)(F)F)CC1 (single isomer, unassigned) [Example 41] | 10 nM
CC1CCN([C@H](C(=O)Nc2cc(CCC(=O)O)ccc2Cl)[C@H](C)C(F)(F)F)CC1 (single isomer, unassigned) [Example 42] | 300 nM
CC1CCN([C@@H](C(=O)Nc2cc(CCC(=O)O)ccc2Cl)[C@@H](C)C(F)(F)F)CC1 (single isomer, unassigned) [Example 43] | 10 nM
CCC1CCN([C@H](C(=O)Nc2cc(CCC(=O)O)ccc2Cl)[C@H](C)C(F)(F)F)CC1 (single isomer, unassigned) [Example 44] | 1000 nM
CCC1CCN([C@@H](C(=O)Nc2cc(CCC(=O)O)ccc2Cl)[C@@H](C)C(F)(F)F)CC1 (single isomer, unassigned) [Example 45] | 3 nM
CC1CCN([C@@H](C(=O)Nc2cc([C@@H](C)CC(=O)O)ccc2Cl)[C@@H](C)C(F)(F)F)CC1 (single isomer, unassigned) [Example 49] | 3 nM
C[C@H]([C@H](C(=O)Nc1cc([C@@H](C)CC(=O)O)ccc1Cl)N1CCC2(CC1)CC2)C(F)(F)F (single isomer, unassigned) [Example 50] | 10 nM

Structure (SMILES) | MEC (minimum effective concentration), sGC-activating activity in the CHO reporter cell in vitro
CC(C(C(=O)Nc1cc(CC2(C(=O)O)CC2)ccc1F)N1CCCCC1)C(F)(F)F (single isomer, unassigned; (+)) [Example 35, (+)-1-(4-Fluoro-3-{[4,4,4-trifluoro-3-methyl-2-(piperidin-1-yl)butanoyl]amino}benzyl)cyclopropanecarboxylic acid] | 30 nM
CC1CCN(C(C(=O)Nc2cc(CCC(=O)O)ccc2F)C(C)C(F)(F)F)CC1.O=C(O)C(F)(F)F (single isomer, unassigned; (+)) [Example 37, (+)-3-(4-Fluoro-3-{[4,4,4-trifluoro-3-methyl-2-(4-methylpiperidin-1-yl)butanoyl]amino}phenyl)propanoic acid trifluoroacetate] | 200 nM
CC(C(C(=O)Nc1cc(CC2(C(=O)O)CC2)ccc1F)N1CCCCC1)C(F)(F)F (stereo not shown) [Example 3] | 60 nM
CC1CCN(C(C(=O)Nc2cc(CCC(=O)O)ccc2F)C(C)C(F)(F)F)CC1 (stereo not shown) [Example 5] | 30 nM
CC1CCN([C@@H](C(=O)Nc2cc(CCC(=O)O)ccc2F)[C@@H](C)C(F)(F)F)CC1 [Example 7] | 60 nM
CCC1CCN(C(C(=O)Nc2cc(CCC(=O)O)ccc2F)C(C)C(F)(F)F)CC1 (stereo not shown) [Example 10] | 30 nM
CCC1CCN(C(C(=O)Nc2cc(CCC(=O)O)ccc2Cl)C(C)C(F)(F)F)CC1 (stereo not shown) [Example 12] | 30 nM
CC(C(C(=O)Nc1cc(CCC(=O)O)ccc1Cl)N1CCC(C(F)(F)F)CC1)C(F)(F)F (stereo not shown) [Example 14] | 30 nM
CC(C(C(=O)Nc1cc(CCC(=O)O)ccc1F)N1CCC2(CC1)CC2)C(F)(F)F (stereo not shown) [Example 15] | 10 nM
C[C@H]([C@H](C(=O)Nc1cc(CCC(=O)O)ccc1F)N1CCC2(CC1)CC2)C(F)(F)F [Example 16] | 50 nM
C[C@H]([C@H](C(=O)Nc1cc(CCC(=O)O)ccc1Cl)N1CCC(C(F)(F)F)CC1)C(F)(F)F [Example 17] | 3 nM
C[C@H]([C@H](C(=O)Nc1cc(CCC(=O)O)ccc1Cl)N1CCC2(CC1)CC2)C(F)(F)F [Example 19] | 3 nM
C[C@H]([C@H](C(=O)Nc1cc(CCC(=O)O)ccc1F)N1CCC(c2ccccc2)CC1)C(F)(F)F [Example 22] | 300 nM
C[C@H]([C@H](C(=O)Nc1cc([C@@H](C)CC(=O)O)ccc1Cl)N1CCC(C(F)(F)F)CC1)C(F)(F)F [Example 23] | 3 nM
C[C@H]([C@H](C(=O)Nc1cc(CCC(=O)O)ccc1F)N1CCC(C(F)(F)F)CC1)C(F)(F)F [Example 24] | 100 nM

Reference: patent US9309198B2, “N-[3-(2-carboxyethyl)phenyl]piperidin-1-ylacetamide derivatives and use thereof as activators of soluble guanylate cyclase” (Bayer Pharma Aktiengesellschaft, priority 2012, dated 2016)
